Source: patent US9464064B2, “HCV helicase inhibitors and methods of use thereof” (University of Kansas, priority 2011, dated 2016)

Biological target: T1, HCV NS3 helicase NS3h_1b(con1) (Hepatitis C virus genotype 1b, UniProt Q9WMX2)
T1 construct: truncated C-terminally His-tagged NS3 proteins lacking the N-terminal protease, called NS3h; His-tag (C); made in house
Test: MBHA screen of NCI mechanistic set library at 20 μM (percent inhibition, compound interference)
Type: biochemical
Conditions: compounds at 20 μM; for Inh. (%) (Inhibition): calculated from Equation 1
In short: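 Molecular beacon-based DNA unwinding assay; compounds screened at 20 μM in triplicate, with DMSO-only negative and 500 nM dT20 positive controls. Fluorescence (ex 643/em 670 nm) was read before and 30 min after adding ATP to 1 mM. Percent inhibition came from the change relative to DMSO controls; interference from pre-ATP fluorescence versus DMSO controls.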

[1] = MBHA with DNA substrate, assay interference calculated with Equation 2
[2] = assay interference calculated with Equation 2 (fluorescence vs DMSO-only controls before ATP)

T1 sequence (Q9WMX2 1192-1657): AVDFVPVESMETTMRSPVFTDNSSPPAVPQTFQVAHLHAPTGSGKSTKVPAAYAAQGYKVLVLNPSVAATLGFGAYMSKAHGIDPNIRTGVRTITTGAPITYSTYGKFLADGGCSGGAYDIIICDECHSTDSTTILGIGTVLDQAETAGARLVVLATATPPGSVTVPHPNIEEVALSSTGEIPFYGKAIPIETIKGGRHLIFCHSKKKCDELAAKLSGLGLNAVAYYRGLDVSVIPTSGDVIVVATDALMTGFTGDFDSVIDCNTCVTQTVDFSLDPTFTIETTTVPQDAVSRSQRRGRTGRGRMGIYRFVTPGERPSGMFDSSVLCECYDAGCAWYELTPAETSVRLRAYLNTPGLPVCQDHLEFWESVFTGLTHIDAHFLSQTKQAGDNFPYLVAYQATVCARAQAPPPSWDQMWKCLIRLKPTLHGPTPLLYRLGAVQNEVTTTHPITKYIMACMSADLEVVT

| Structure (SMILES) | Int.* (Ratio) (Interference) [1] | Inh. (%) (Inhibition) (MBHA with DNA substrate) | Inh. (%) (Inhibition) (MBHA with a DNA substrate) | Int.* (Ratio) (Interference) [2] |
| --- | --- | --- | --- | --- |
| CCN(CC)CCOC(=O)Cc1cccc2c(=O)cc(-c3ccccc3)oc12 [Compound 293015] | 0.96 | 6.7 |  |  |
| O=C1Oc2ccccc2C(=O)/C1=C1\C=C(c2ccccc2)SS1 [Compound 293927] | 1.00 | −14.7 |  |  |
| CC(C)C1=C(O)C2=C(C(=O)C1=O)C1(C)CCCC(C)(C)C1CC2O (stereo not shown) [Compound 294577] | 0.95 | −15.9 |  |  |
| O=C1Nc2ccc(Br)cc2/C1=C\C(=O)c1ccccc1 [Compound 294961] |  |  | −28.1 | 1.06 |
| CC1(O)C=CC(=O)C=C1 [Compound 295156] |  |  | 9.0 | 0.99 |
| NCCCNCCSP(=O)(O)O [Compound 296961] | 0.92 | 17.5 |  |  |
| COc1cc2oc(=O)cc(C)c2cc1[N+](=O)[O-] [Compound 299879] | 0.94 | 20.5 |  |  |
| COc1ccc(-c2csc(=[N+]3CCCCC3)s2)cc1.O=S(=O)(O)O [Compound 302358] | 1.05 | 1.1 |  |  |
| C=C1C(=O)C2=CC1CCC(=O)C1(C)CCC(OC(C)=O)C(C)(C)C1CC2O (stereo not shown) [Compound 302979] | 0.89 | −8.3 |  |  |
| CCC12C[N+]3([O-])CCc4c([nH]c5ccccc45)C(C(=O)OC)(c4cc5c(cc4OC)N(C)C4C(O)(C(=O)OC)C(OC(C)=O)C6(CC)C=CCN7CCC54C76)CC(C3)C1O2 (stereo not shown) [Compound 304421] | 0.97 | 25.6 |  |  |
| C=C1C(C)C2C(Cc3ccccc3)NC(=O)C23C(OC(C)=O)/C=C/C(C)(O)CC(C)C/C=C/C3C1O (stereo not shown) [Compound 305222] | 1.03 | 12.2 |  |  |
| Nc1nc(N)c2cc(Sc3cccc(C(F)(F)F)c3)ccc2n1 [Compound 305782] | 0.87 | 28.4 |  |  |
| CC(C)(C)NCCC(O)c1cc(C(F)(F)F)nc2c(C(F)(F)F)cccc12.O=P(O)(O)O (stereo not shown) [Compound 305819] | 0.99 | 28.1 |  |  |
| CC(=O)N(C)c1ccc(Nc2cc(C)[nH]c3ccc4ncnc4c23)cc1.Cl [Compound 305884] |  |  | 8.9 | 1.04 |
| C[C@@H]1CC[C@@]2(OC1)O[C@H]1CC3[C@@H]4CC=C5C[C@@H](O[C@@H]6O[C@H](CO)[C@@H](O[C@@H]7O[C@@H](C)[C@H](O[C@@H]8O[C@@H](C)[C@H](O)[C@@H](O)[C@@H]8O)[C@@H](O)[C@H]7O)[C@H](O)[C@H]6O[C@@H]6O[C@@H](C)C(O)[C@@H](O)[C@H]6O)CC[C@]5(C)[C@H]4CC[C@]3(C)[C@H]1[C@@H]2C (stereo partly shown) [Compound 306864] | 0.86 | 1.3 |  |  |
| O=NN(CCCl)C(=O)NCc1ccc[n+]([O-])c1 [Compound 307454] |  |  | −2.9 | 1.08 |
| CN(C)CCN1C(=O)c2cccc3cc(N)cc(c23)C1=O [Compound 308847] | 1.05 | −13.3 |  |  |
| CC(=O)O.Cc1c2cc[n+](CCN3CCCCC3)cc2c(C)c2c1[nH]c1ccc(O)cc12 [Compound 311153] | 0.29 | 5.0 |  |  |
| CCP(CC)CC.[Au+].[Cl-] [Compound 313981] |  |  | −3.8 | 0.93 |
| COc1cc2c3c(n(C)c(=O)c2cc1OC)-c1cc2c(cc1C3=O)OCO2 [Compound 314622] | 0.70 | 23.1 |  |  |
| O=C1c2ccccc2C(=O)c2c(O)c(NCCNCCO)cc(O)c21 [Compound 316157] | 0.70 | 36.4 |  |  |
| C/C(=N\NC(=S)N1CCC1)c1ccccn1 [Compound 319726] | 1.02 | 3.2 |  |  |

| Structure (SMILES) | Int.* (Ratio) (Interference) [1] | Inh. (%) (Inhibition) (MBHA with DNA substrate) | Inh. (%) (Inhibition) (MBHA with a DNA substrate) | Int.* (Ratio) (Interference) [2] |
| --- | --- | --- | --- | --- |
| Nc1ccc2c(c1)CN1C(=O)c3ccccc3C1=N2 [Compound 320846] |  |  | 10.7 | 0.90 |
| O=C(N=Nc1c(O)[nH]c2c(Cl)cc(Cl)cc12)c1ccccc1O [Compound 320864] | 0.80 | 4.4 |  |  |
| COc1ccc2c(c1[N+](=O)[O-])CC[C@@H]1[C@@H]2CC[C@]2(C)C(=O)CC[C@@H]12 [Compound 321803] | 1.02 | −11.7 |  |  |
| C/C(=N\N=C(/[Se])N1CC2CCC(CC2)C1)c1ccccn1 [Compound 323241] |  |  | 10.7 | 0.90 |
| CCCCCCCCCCCCCCCCCCOCC(COP(=O)([O-])OCC[N+](C)(C)C)OC (stereo not shown) [Compound 324368] | 0.85 | −15.0 |  |  |
| CCCCS(=N)(=O)CCC(N)C(=O)O (stereo not shown) [Compound 326231] | 0.94 | 28.0 |  |  |
| Clc1cc2nc[nH]c2cc1Cl [Compound 326397] | 1.06 | 1.6 |  |  |
| CN(C)c1ccc(/C=N/N=C2\C(=O)Nc3c(Cl)cc(Cl)cc32)cc1 [Compound 327697] | 1.22 | −10.2 |  |  |
| C[C@@H]1CCOC(=O)/C=C/C=C\C(=O)O[C@@H]2C[C@H]3O[C@@H]4[C@@H]5O[C@]5(C)[C@H](O)C[C@]4(COC(=O)[C@H]1O)[C@]2(C)[C@@]31CO1 [Compound 328166] | 1.04 | 20.7 |  |  |
| CC(=O)OC1C(O)C(C)OC(OC2C(OC(=O)C3CCC4C(C3)OC3(CC(OC(=O)/C=C/c5ccccc5)C(C)CO3)C43CO3)OC(C)C(O)C2OC(C)=O)C1O (stereo not shown) [Compound 328426] |  |  | −3.0 | 1.00 |
| Cc1c(Cl)cccc1NC(=O)c1cccc([N+](=O)[O-])c1O [Compound 328477] | 0.96 | −0.8 |  |  |
| CC1(C)CC2=NO[Se]3=C2C(=NO3)C1 [Compound 328587] | 0.95 | −1.3 |  |  |
| CCOc1cccc(/C=N/N=C2\C(=O)Nc3c(Cl)cc(Cl)cc32)c1O [Compound 329277] | 1.08 | −11.4 |  |  |
| O=C1Nc2c(Cl)cc(Cl)cc2C1=NN=Cc1ccco1 [Compound 329279] | 0.94 | 1.9 |  |  |
| C=C1C(=O)O[C@@H]2/C=C(/C)C(=O)C[C@H]3OC(C)(C)O[C@]3(C)C[C@@H](OC(=O)/C(C)=C\C)[C@@H]12 [Compound 329696] | 0.81 | 32.6 |  |  |
| COC1CC(C)C(OC)c2cc(O)cc(c2O)NC(=O)/C(C)=C/C=C\C(C)C(OC(N)=O)/C(C)=C/C(C)C1OC (stereo not shown) [Compound 330500] |  |  | 12.0 | 1.04 |
| COc1cc2c(c(O)c1OC)-c1c(cc(OC)c(OC)c1OC)C[C@@H](C)[C@@H](C)C2 [Compound 330515] | 0.95 | 4.3 |  |  |
| COc1cc2c(c(OC)c1OC)-c1c(cc3c(c1OC)OCO3)CC(C)C(C)(O)C2OC(=O)c1ccccc1 (stereo not shown) [Compound 330516] | 0.92 | 13.8 |  |  |
| CC(=O)O[C@H]1C(=O)[C@@]2(C)[C@H]([C@H](OC(=O)c3ccccc3)[C@]3(O)C[C@H](O)C(C)=C1C3(C)C)[C@]1(OC(C)=O)CO[C@@H]1C[C@@H]2O [Compound 330753] |  |  | −24.1 | 0.88 |
| CCOC(=O)Nc1cc2c(c(N)n1)N=C(c1ccccc1)CN2 [Compound 330770] | 0.91 | −1.6 |  |  |
| CCN(CC)CCCC(C)NC(=O)c1ccc2c(c1)C(=O)c1ccccc1C2=O.Cl (stereo not shown) [Compound 331757] | 0.93 | −16.9 |  |  |
| CO[C@@H](/C(C)=C/C=C/C(C)=C/c1coc(C)n1)[C@@H](C)[C@@H]1C[C@H](O)[C@@]2(C)O[C@@H]2/C=C/[C@@H](C)[C@H]2C[C@H](CC(=O)O2)C[C@@H]2O[C@H]2C(=O)O1 [Compound 332598] | 0.98 | −11.7 |  |  |
